As a reminder, the melting point is the temperature, or range, at which the solid turns liquid.

Like-named read-outs stand apart in the source and are kept apart here.

We go through 13 molecules from patent US6586617B1, “Sulfonamide derivatives” (Sumitomo Chemical Takeda Agro Company, Limited, priority 1999, dated 2003).

Series [1] deals with apple Alternaria leaf blotch (Alternaria mali). In words: Test Example 6: apple Alternaria leaf blotch, single and combined fungicides (Table 3). The note with it: for Lesion area ratio (%) / Protection value: apple leaves; for protection effect in combination compared with estimated protection effect (synergy): in combination with mepanipyrim (No. 289) and iminoctadine (No. 97), respectively.
Protocol: (§1) The protection value was calculated by means of the equation as follows. protection value=(1−(lesion area in the division treated with fungicide)/lesion area in the division not treated with fungicide))×100
(§2) An estimated protection value of a mixture of active ingredients was calculated according to the Colby's formula [R. S. Colby, Weeds 15, 20-22 (1967)] and compared with the experimental protection value.
[wherein, E is the estimated protection value (additive effect) which will be obtained when the active ingredients A and B are used in a mixture in concentrations a and b, respectively x is the protection value obtained when the active igredient A is used in a concentration a, and y is the protection value obtained when the active ingredient B is used in a concentration b.

Series [2] has as its system cucumber gray mold (Botrytis cinerea). In words: Test Example 9: cucumber gray mold, single and combined fungicides (Table 6). The note with it: for Lesion area ratio (%) / Protection value: young cucumber (Yotsuba).
Protocol: as §1, §2
[wherein, E is the estimated protection value (additive effect) which will be obtained when the active ingredients A and B are used in a mixture in concentrations a and b, respectively x is the protection value obtained when the active igredient A is used in a concentration a, and y is the protection value obtained when the active ingredient B is used in a concentration b. […] A protection value equal 0 means that the lesion area ratio of the plants in the test group is as large as that of the plants in the untreated control group. A protection value equals 100 means that the plants in the test group are free from the disease.
The test compound (denoted by the compound No. in Table 1 above), azoxystrobin, mepanipyrim and iprodione, individually or in combination, were dissolved in dimethylformamide (final concentration was 1 wt %). Xylene (final concentration was 0.02 wt %) and Tween 20 (Trade Name) (final concentration was 0.02 wt %) were added to the solution. The resulting mixture was diluted with water to give a test solution which contained a given concentration (ppm) of the active ingredient. A spreader adjuvant SINDAIN (Trade Name, Manufactured by Takeda Chemical Industries, Ltd, and comprises 20 wt % of polyoxyethylene nonylphenyl ether and 12 wt % of calcium ligninsulfonate) was added to this solution in the final concentration of 0.05 wt % to give a spray agent.
The spray agent was sprayed in an amount of 10 ml/pot on young cucumber (cultural variety: Yotsuba) cultivated for 3 to 4 weeks in a greenhouse. After drying up in a room, the treated cucumbers were inoculated with pathogenic fangi on the leaves by placing the mycelial disks which were cut out from a PSA medium grown with Botrytis cinerea and then kept in a greenhouse at 28° C. for 3 days. Then, the ratio of the lesion area on the plants treated with the test compound and that on the plants treated with another substances to that on untreated plants was investigated.
The subject of series [3] is rice Helminthosporium leaf spot (Cochliobolus miyabeanus). As to the kind of experiment: Test Example 8: rice Helminthosporium leaf spot, single and combined fungicides (Table 5). Conditions: for Lesion area ratio (%) / Protection value: young rice plants. The format is in vivo.
For series [4], the system named is apple Alternaria leaf blotch (Alternaria mali). In words: Test Example 5: apple Alternaria leaf blotch, single and combined fungicides (Table 2). The format is in vivo. The note with it: for Lesion area ratio (%) / Protection value: apple seedlings; for protection effect in combination compared with estimated protection effect (synergy): in combination with chlorothalonil, hexaconazole and azoxystrobin.

The subject of series [5] is rice blast (Pyricularia oryzae). Type of series: in vivo. Conditions: for Lesion area ratio (%) / Protection value: rice plants.

For `N=C(N)NCCCCCCCCNCCCCCCCCNC(=N)N` [Iminoctadine, iminoctadine, reference compound], the “Lesion area ratio (%)” value came out at 66.7% in series [1] (0.4 ppm active ingredient), 33.8% in series [1] (1.6 ppm active ingredient) and 35.0% in series [1] (6.3 ppm active ingredient). In addition, the Protection value stood at 6 in series [1] (0.4 ppm active ingredient), 52 in series [1] (1.6 ppm active ingredient) and 51 in series [1] (6.3 ppm active ingredient).

With `CCN(c1ccc(Cl)cc1[N+](=O)[O-])S(=O)(=O)c1ccc(C)cc1` [Compound No. 289, 4′-Chloro-N-ethyl-2′-nitro-p-toluenesulfonanilide], the “Lesion area ratio (%)” value in series [2] (100 ppm active ingredient) is 13.2%; in series [3] (25 ppm active ingredient), 5.0%; in series [3] (100 ppm active ingredient), 4.5%; in series [1] (0.4 ppm active ingredient), 18.3%; in series [1] (1.6 ppm active ingredient), 13.7%; in series [1] (6.3 ppm active ingredient) it was 9.3%. The “Lesion area ratio (%)” value turned out to be 36.9% in series [4] (0.4 ppm active ingredient); 20.8% in series [4] (1.6 ppm active ingredient); 3.8% in series [4] (6.3 ppm active ingredient); 4.3% in series [4] (25 ppm active ingredient); 25.0% in series [5] (100 ppm active ingredient); 25.0% in series [5] (200 ppm active ingredient). For the same molecule, the Protection value in series [2] (100 ppm active ingredient) was found to be 0.0; in series [3] (25 ppm active ingredient), 71.4; in series [3] (100 ppm active ingredient) it was 74.3; in series [1] (0.4 ppm active ingredient) it was 74; in series [1] (1.6 ppm active ingredient), 81; in series [1] (6.3 ppm active ingredient), 87. Besides, the Protection value in series [4] (0.4 ppm active ingredient) was 38; in series [4] (1.6 ppm active ingredient), 65; in series [4] (6.3 ppm active ingredient), 94; in series [4] (25 ppm active ingredient), 93; in series [5] (100 ppm active ingredient) it was 0; in series [5] (200 ppm active ingredient) it was 0. Besides, the “protection effect in combination compared with estimated protection effect (synergy)” value in series [2] (in combination with azoxystrobin, mepanipyrim and iprodione) is recorded as “higher protection effect”; in series [1] it was “higher protection effect”; in series [4], “higher protection effect”; in series [5] (in combination with azoxystrobin), “higher protection effect”. For the same molecule, the “protection effect in combination compared with estimated protective effect (synergy)” value in series [3] (in combination with ferimzone) is on record as “higher protection effect”.

Consider `CCCCC(O)(Cn1cncn1)c1ccc(Cl)cc1Cl` (stereo not drawn) [Hexaconazole, hexaconazole, reference compound], for which the “Lesion area ratio (%)” value in series [4] (0.4 ppm active ingredient) is 70.0%; in series [4] (1.6 ppm active ingredient), 66.7%; in series [4] (6.3 ppm active ingredient), 21.7%. Moreover, the Protection value in series [4] (0.4 ppm active ingredient) amounted to 0; in series [4] (1.6 ppm active ingredient) it was 0; in series [4] (6.3 ppm active ingredient) it was 63.

For the molecule `CC(C)NC(=O)N1CC(=O)N(c2cc(Cl)cc(Cl)c2)C1=O` [Iprodione, iprodione], in series [2] (10 ppm active ingredient), the “Lesion area ratio (%)” value was 3.7% and the Protection value is 71.3.

In the case of `CCN(c1ccc(SC)cc1[N+](=O)[O-])S(=O)(=O)c1ccc(C)cc1` [Compound No. 227, N-Ethyl-4′-methylthio-2′-nitro-p-toluenesulfonanilide], the melting point is 135 to 136 °C.

For `Cc1ccc(S(=O)(=O)N(c2ccc([N+](=O)[O-])cc2C#N)C(C)C)cc1` [Compound No. 421], the “Lesion area ratio (%)” value in series [4] (0.4 ppm active ingredient) is listed as 24.7%; in series [4] (1.6 ppm active ingredient), 20.0%; in series [4] (6.3 ppm active ingredient), 2.3%; in series [4] (25 ppm active ingredient), 0.3%. The Protection value was determined as 58 in series [4] (0.4 ppm active ingredient), 66 in series [4] (1.6 ppm active ingredient), 96 in series [4] (6.3 ppm active ingredient) and 99 in series [4] (25 ppm active ingredient). Moreover, the “protection effect in combination compared with estimated protection effect (synergy)” value in series [4] is recorded as “higher protection effect”.

As for `N#Cc1c(Cl)c(Cl)c(Cl)c(C#N)c1Cl` [Chlorothalonil, chlorothalonil, reference compound], the “Lesion area ratio (%)” value in series [4] (6.3 ppm active ingredient) was found to be 43.5%; in series [4] (25 ppm active ingredient), 60.0%; in series [4] (100 ppm active ingredient), 16.8%. Moreover, the values for the Protection value in series [4] (6.3 ppm active ingredient), in series [4] (25 ppm active ingredient) and in series [4] (100 ppm active ingredient) were 27, 0 and 72, respectively.

`CC#Cc1cc(C)nc(Nc2ccccc2)n1` [Mepanipyrim, mepanipyrim, reference compound]: the “Lesion area ratio (%)” value in series [2] (10 ppm active ingredient) worked out at 6.0%; in series [1] (0.4 ppm active ingredient) it was 68.3%; in series [1] (1.6 ppm active ingredient) it was 73.3%; in series [1] (6.3 ppm active ingredient), 19.3%. Moreover, the Protection value amounted to 53.8 in series [2] (10 ppm active ingredient), 4 in series [1] (0.4 ppm active ingredient), 0 in series [1] (1.6 ppm active ingredient) and 73 in series [1] (6.3 ppm active ingredient).

`Cc1ccc(S(=O)(=O)N(c2ccc(Cl)cc2C#N)C(C)C)cc1` [Compound No. 97, 4′-Chloro-2′-cyano-N-isopropyl-p-toluenesulfonanilide]: the “Lesion area ratio (%)” value came out at 25.0% in series [1] (0.4 ppm active ingredient), 19.2% in series [1] (1.6 ppm active ingredient) and 8.0% in series [1] (6.3 ppm active ingredient). Besides, the Protection value stood at 65 in series [1] (0.4 ppm active ingredient), 73 in series [1] (1.6 ppm active ingredient) and 89 in series [1] (6.3 ppm active ingredient). Moreover, in series [1], the “protection effect in combination compared with estimated protection effect (synergy)” value is reported as “higher protection effect”.

Molecule `CON(c1ccc([N+](=O)[O-])cc1Cl)S(=O)(=O)c1cc(Cl)ccc1Cl` [Compound No. 528, N-Methoxy-4′-nitro-2,2′,5-trichlorobenzenesulfonanilide] displayed a melting point of 136 to 138 °C.

For the molecule `CO/C=C(/C(=O)OC)c1ccccc1Oc1cc(Oc2ccccc2C#N)ncn1` [Azoxystrobin, azoxystrobin, reference compound], the “Lesion area ratio (%)” value in series [2] (10 ppm active ingredient) is reported as 3.9%; in series [4] (6.3 ppm active ingredient) it was 25.8%; in series [4] (25 ppm active ingredient), 25.0%; in series [5] (0.1 ppm active ingredient) it was 11.0%; in series [5] (0.5 ppm active ingredient), 5.0%. For the same molecule, the Protection value came to 69.8 in series [2] (10 ppm active ingredient); 56 in series [4] (6.3 ppm active ingredient); 58 in series [4] (25 ppm active ingredient); 56 in series [5] (0.1 ppm active ingredient); 80 in series [5] (0.5 ppm active ingredient).

In turn, `Cc1ccc(S(=O)(=O)N(C)c2ccccc2[N+](=O)[O-])cc1` [Compound No. 38, N-Methyl-2′-nitro-p-toluenesulfonanilide] displayed a melting point of 131.5 to 132.5 °C.

For the molecule `C/C(=N/Nc1nc(C)cc(C)n1)c1ccccc1C` [Ferimzone, ferimzone, reference compound], in series [3] (25 ppm active ingredient), the “Lesion area ratio (%)” value stood at 1.5% and the Protection value is given as 91.4. Also, in series [3] (100 ppm active ingredient), the “Lesion area ratio (%)” value was determined as 0.4% and the Protection value is on record as 98.0.
